Read-outs that look alike come from different tables or passages of the source.
Legend:
hMC-4R [1] = molecular target: T1, hMC-4R (Homo sapiens, UniProt P32245); experiment: Membrane binding assay (fluorescence polarization, competition with fluorescence labeled NDP-alpha-MSH)
T1 construct: expressed in transfected cells; host or cells: HEK293

hMC-4R [2] = molecular target: T1, hMC-4R; experiment: Functional assay (membrane based cAMP fluorescence polarization, agonistic activity); assay type: biochemical; conditions: cAMP produced compared to stimulation with NDP-alpha-MSH; read-out: % activation functional assay
Protocol: Agonistic activity of human melanocortin receptors is determined in a homogeneous membrane based assay.
Membrane preparations from HEK293 cells expressing the human melanocortin receptors are added. After a short preincubation period, an appropriate amount of ATP, GTP and the cAMP antibody is added and the plate is further incubated before the fluorescence labeled cAMP conjugate is dispensed. The plate is incubated for 2 h at 4°C before it is read on a fluorescence polarization microplate reader. The amount of cAMP produced as a response to a test compound is compared to the production of cAMP resulting from stimulation with NDP-alpha-MSH.

[3] = HEK293 cell membrane preparations expressing human melanocortin receptors, 5 h at room temperature, read-out: hMC-4R binding assay IC50/µM

T1 sequence (P32245 whole entry): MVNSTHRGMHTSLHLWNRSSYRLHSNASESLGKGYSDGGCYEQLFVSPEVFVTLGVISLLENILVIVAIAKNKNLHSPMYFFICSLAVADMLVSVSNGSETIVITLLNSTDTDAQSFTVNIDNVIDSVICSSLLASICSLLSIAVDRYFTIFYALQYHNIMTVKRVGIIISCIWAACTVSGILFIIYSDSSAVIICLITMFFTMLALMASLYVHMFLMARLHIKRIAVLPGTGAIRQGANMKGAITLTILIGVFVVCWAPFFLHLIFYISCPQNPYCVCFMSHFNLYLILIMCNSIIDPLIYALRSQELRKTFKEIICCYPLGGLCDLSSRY

Structure (SMILES) | IC50 (hMC-4R [1]) | Emax (hMC-4R [2]) | IC50 (hMC-4R [1]; [3])
COc1ccc(Nc2nc3ccc(C(=O)N(CCC(C)C)CCC(C)C)nn3c2CCCN)cc1 [Example 1] | 0.49 µM | 0% | 
CC(C)CCN(CCC(C)C)C(=O)c1ccc2nc(-c3ccc4c(c3)OCCO4)c(CCCN3CCCCC3)n2n1 [Example 3] |  | 0% | 0.12 µM
CC(C)CCN(CCC(C)C)C(=O)c1cnc2nc(-c3ccc(C#N)cc3)c(CCCN3CCCC3)n2c1 [Example 5] | 0.18 µM | 0% | 
CC(C)CCN(CCC(C)C)C(=O)c1cn2c(CCCN(C)C)c(-c3ccc(C(N)=O)cc3)nc2cn1 [Example 10] | 0.28 µM | 0% | 
CC(C)CCN(CCC(C)C)C(=O)c1ccc2nc(-c3ccc4c(c3)OCCO4)c(CCCN)n2n1 [Example 2] | 1.1 µM | 0% | 
CC(C)CCN(CCC(C)C)C(=O)c1cnc2nc(-c3ccc(C#N)cc3)c(CCCN(C)C)n2c1 [Example 6] | 1 µM | 0% | 
CC(C)CCN(CCC(C)C)C(=O)c1ccc2nc(-c3ccc(C#N)cc3)c(CCCN3CCCC3)n2n1 [Example 4] | 0.3 µM | 0% | 
CC(C)CCN(CCC(C)C)C(=O)c1cn2c(CCCN3CCCC3)c(-c3ccc(C#N)cc3)nc2cn1 [Example 7] | 0.02 µM | 0% | 
CC(C)CCN(CCC(C)C)C(=O)c1cn2c(CCCN(C)C)c(-c3ccc(C#N)cc3)nc2cn1 [Example 8] |  | 0% | 0.19 µM
CC(C)CCN(CCC(C)C)C(=O)c1cn2c(CCCN3CCCC3)c(-c3ccc(C(N)=O)cc3)nc2cn1 [Example 9] |  | 0% | 0.048 µM
